Drawing on patent US7652153B2, “Caspase inhibitors and uses thereof” (Vertex Pharmaceuticals Incorporated, priority 2004, dated 2010), this text covers Ki for 20 compounds.

The target of assay [1] is caspase-8 (Homo sapiens, UniProt Q14790). Description: Caspase-8 enzyme inhibition (Ki, method of Margolin et al.). The conditions noted are these: Ac-DEVD-pNA substrate 80 μM, 37° C., pH 7.5; read-out: Ki C8. The format is biochemical. As for the experimental part:
(§1) Compounds of this invention may be tested using the methods described below.
(§2) In Vitro Assays Enzyme Inhibition
(§3) Ki values for test compounds with caspase-1 and caspase-8 were obtained by the method of Margolin et al. (J. Biol. Chem., 272 pp. 7223-7228 (1997)). Other caspases may be assayed similarly (see, e.g., WO 99/47545). Assays were performed in 10 mM Tris (Sigma Corp, St Louis Mo.) pH 7.5, 1 mM Dithiothreitol (DTT, Research Organic INC, Cleveland, Ohio) and 0.1% CHAPS (Pierce, Rockford Ill.) at 37° C. For caspase-3, a solution of 8% glycerol was added to the assay buffer to improve enzyme stability. A 65 μL aliquot of the assay buffer and 5 μL aliquot of the appropriate dilutions of inhibitor in DMSO where pipetted into a 96 well plate, treated with 10 μL of caspase, then diluted in assay buffer (0.5-40 nM active protein by active site titration). A control containing DMSO but no compound was included for each determination. The plates were then incubated for 15 minutes at 37° C., before addition of the appropriate substrate (20 μL, final concentration 1-4×KM, final assay volume 100 μL) to initiate the reaction. Reaction rates were measured at 37° C. either by following the time dependant increase in absorbance at 405 nm (for the pNA substrates) or in fluorescence (Ex 390, Em 460) (for the AMC substrates). The rates obtained were plotted against inhibitor concentration and the data fit to the Morrison tight-binding equation for competitive inhibitors (Morrison, J. F., Biochem. Biophys. Acta, 185 pp. 269-286 (1969)). The substrates used for the individual assays were as follows:
Caspase-8 Ac-DEVD-pNA (Bachem, King of Prussia, Pa.) (final concentration in assay 80 μM).

The target in assay [2] is T1, caspase-1 (Homo sapiens, UniProt P29466).
T1 sequence (P29466 120-297 limits assumed): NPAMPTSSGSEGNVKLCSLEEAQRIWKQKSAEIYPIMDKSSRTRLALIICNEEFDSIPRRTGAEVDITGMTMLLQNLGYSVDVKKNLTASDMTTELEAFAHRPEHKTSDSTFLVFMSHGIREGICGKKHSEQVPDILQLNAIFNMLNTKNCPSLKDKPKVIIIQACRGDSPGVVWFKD
T1 sequence (P29466 317-404 limits assumed): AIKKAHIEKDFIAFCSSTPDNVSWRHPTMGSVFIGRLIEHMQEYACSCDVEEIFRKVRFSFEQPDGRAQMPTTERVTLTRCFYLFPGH
As to the kind of experiment: Caspase-1 enzyme inhibition (Ki, method of Margolin et al.). The format is biochemical. To be noted: Suc-YVAD-pNA substrate 80 μM, 37° C., pH 7.5; read-out: Ki C1. As to the method: as §1, §2, §3
Caspase-1 Suc-YVAD-pNA (Bachem, King of Prussia, Pa.) (final concentration in the assay 80 μM);

Sequence of caspase-8 (Q14790 217-374 limits assumed, species assumed): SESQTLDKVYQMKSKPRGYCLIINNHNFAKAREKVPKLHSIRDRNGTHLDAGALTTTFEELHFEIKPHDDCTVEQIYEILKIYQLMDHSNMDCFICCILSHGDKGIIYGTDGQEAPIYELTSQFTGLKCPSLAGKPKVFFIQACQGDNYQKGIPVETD
Sequence of caspase-8 (Q14790 385-479 limits assumed, species assumed): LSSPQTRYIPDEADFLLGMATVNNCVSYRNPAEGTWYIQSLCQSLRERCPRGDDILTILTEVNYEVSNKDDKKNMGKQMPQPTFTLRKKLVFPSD

Regarding `CC(C)(C)[C@H](NC(=O)c1nccc2ccccc12)C(=O)N1[C@@H]2CC[C@@H](C2)[C@H]1C(=O)N[C@H](C=O)CC(=O)O` (stereo in doubt) [II-64, (3S)-({2-[(2S)-(Isoquinolin-1-ylcarbonylamino)-3,3-dimethyl-butyryl]-2-(1S,4R)-aza-bicyclo[2.2.1]heptane-(3S)-carbonyl}-amino)-4-oxo-butyric acid], the inhibition constant (Ki) in assay [1] and in assay [2] was 10 to 20 nM throughout.
As for `CC(C)[C@H](NC(=O)c1c(Cl)cncc1Cl)C(=O)N1CCC[C@H]1C(=O)N[C@H](C=O)CC(=O)O` [II-19, (S,S,S)-(3S)-[(1-{(2S)-[(3,5-Dichloro-pyridine-4-carbonyl)-amino]-3-methyl-butyryl}-pyrrolidine-(2S)-carbonyl)-amino]-4-oxo-butyric acid], the Ki (commonly a measure of affinity in units of concentration, obtained from inhibition or displacement) is under 10 nM in assay [1] and 10 to 20 nM in assay [2].
The matching figures for `COc1cccc(C(=O)N[C@H](C(=O)N2CCC[C@H]2C(=O)N[C@H](C=O)CC(=O)O)C(C)(C)C)c1F` [II-31, (S,S,S)-(3S)-({1-[(2S)-(2-Fluoro-3-methoxy-benzoylamino)-3,3-dimethyl-butyryl]-pyrrolidine-(2S)-carbonyl}-amino)-4-oxo-butyric acid]: under 10 nM and under 10 nM.
Consider `COCc1ccc(C(=O)N[C@H](C(=O)N2CCC[C@H]2C(=O)N[C@H](C=O)CC(=O)O)C(C)(C)C)c(Cl)c1` [II-48, (S,S,S)-(3S)-({1-[(2S)-(2-chloro-4-methoxymethyl-benzoylamino)-3,3-dimethyl-butyryl]-pyrrolidine-(2S)-carbonyl}-amino)-4-oxo-butyric acid], for which the Ki in assay [1] and in assay [2] was under 10 nM throughout.
As for `CC(C)[C@H](NC(=O)c1cccc(C(F)(F)F)c1Cl)C(=O)N1CCC[C@H]1C(=O)N[C@H](C=O)CC(=O)O` [II-9, (S,S,S)-(3S)-({1-[(2S)-(2-Chloro-3-trifluoromethyl-benzoylamino)-3-methyl-butyryl]-pyrrolidine-(2S)-carbonyl}-amino)-4-oxo-butyric acid], the Ki was 10 to 20 nM in assay [1] and under 10 nM in assay [2].
Regarding `COc1cccc(C(=O)N[C@H](C(=O)N2[C@@H]3CC[C@@H](C3)[C@H]2C(=O)NC(C=O)CC(=O)O)C(C)(C)C)c1C` (stereo in doubt) [II-55, (3S)-({2-[(2S)-(3-Methoxy-2-methyl-benzoylamino)-3,3-dimethyl-butyryl]-2-(1S,4R)-aza-bicyclo[2.2.1]heptane-(3S)-carbonyl}-amino)-4-oxo-butyric acid], the Ki in assay [1] and in assay [2] was under 10 nM each time.
In the case of `CC(C)[C@H](NC(=O)c1cccc(Cl)c1Cl)C(=O)N1CCC[C@H]1C(=O)N[C@H](C=O)CC(=O)O` [II-8, (S,S,S)-(3S)-({1-[(2S)-(2,3-Dichloro-benzoylamino)-3-methyl-butyryl]-pyrrolidine-(2S)-carbonyl}-amino)-4-oxo-butyric acid], the inhibitory constant (Ki) in assay [1] is 10 to 20 nM; in assay [2], under 10 nM.
The corresponding values for `Cc1ccsc1C(=O)N[C@H](C(=O)N1CCC[C@H]1C(=O)N[C@H](C=O)CC(=O)O)C(C)C` [II-17, (S,S,S)-(3S)-[(1-{3-Methyl-(2S)-[(3-methyl-thiophene-2-carbonyl)-amino]-butyryl}-pyrrolidine-(2S)-carbonyl)-amino]-4-oxo-butyric acid] are under 10 nM and under 10 nM.
In the case of `COc1ccc(C(=O)N[C@H](C(=O)N2CCC[C@H]2C(=O)N[C@H](C=O)CC(=O)O)C(C)C)c(Cl)c1` [II-37, (S,S,S)-(3S)-({1-[(2S)-(2-chloro-4-methoxy-benzoylamino)-3-methyl-butyryl]-pyrrolidine-(2S)-carbonyl}-amino)-4-oxo-butyric acid], the Ki in assay [1] was 10 to 20 nM; in assay [2] it was under 10 nM.
Regarding `CC(C)Oc1ccc(C(=O)N[C@H](C(=O)N2CCC[C@H]2C(=O)N[C@H](C=O)CC(=O)O)C(C)C)c(Cl)c1` [II-46, (S,S,S)-(3S)-({1-[(2S)-(2-chloro-4-isopropyloxy-benzoylamino)-3-methyl-butyryl]-pyrrolidine-(2S)-carbonyl}-amino)-4-oxo-butyric acid], the Ki in assay [1] was 21 to 30 nM; in assay [2], under 10 nM.
Consider `CC(C)(C)[C@H](NC(=O)c1cccc(OC2CC2)c1Cl)C(=O)N1CCC[C@H]1C(=O)N[C@H](C=O)CC(=O)O` [II-33, (S,S,S)-(3S)-({1-[(2S)-(2-Chloro-3-cyclopropyloxy-benzoylamino)-3,3-dimethyl-butyryl]-pyrrolidine-(2S)-carbonyl}-amino)-4-oxo-butyric acid], for which the Ki in assay [1] and in assay [2] was under 10 nM in each case.
For the compound `CC(C)[C@H](NC(=O)c1ccc(Cl)cc1Cl)C(=O)N1CCC[C@H]1C(=O)N[C@H](C=O)CC(=O)O` [II-11, (S,S,S)-(3S)-({1-[(2S)-(2,4-Dichloro-benzoylamino)-3-methyl-butyryl]-pyrrolidine-(2S)-carbonyl}-amino)-4-oxo-butyric acid], the Ki in assay [1] was 21 to 30 nM; in assay [2], under 10 nM.
Consider `CC(C)[C@H](NC(=O)c1c(Cl)cccc1Cl)C(=O)N1CCC[C@H]1C(=O)N[C@H](C=O)CC(=O)O` [II-13, (S,S,S)-(3S)-({1-[(2S)-(2,6-Dichloro-benzoylamino)-3-methyl-butyryl]-pyrrolidine-(2S)-carbonyl}-amino)-4-oxo-butyric acid], for which the Ki in assay [1] and in assay [2] was 10 to 20 nM each time.
Regarding `COc1cccc(C(=O)N[C@H](C(=O)N2CCC[C@H]2C(=O)N[C@H](C=O)CC(=O)O)C(C)(C)C)c1C` [II-20, (S,S,S)-(3S)-({1-[(2S)-(3-Methoxy-2-methyl-benzoylamino)-3,3-dimethyl-butyryl]-pyrrolidine-(2S)-carbonyl}-amino)-4-oxo-butyric acid], the inhibition constant Ki in assay [1] and in assay [2] was under 10 nM each time.
Turning to `CC(C)(C)[C@H](NC(=O)c1ccccc1Cl)C(=O)N1[C@@H]2CC[C@@H](C2)[C@H]1C(=O)NC(C=O)CC(=O)O` (stereo in doubt) [II-56, (3S)-({2-[(2S)-(2-Chloro-benzoylamino)-3,3-dimethyl-butyryl]-2-(1S,4R)-aza-bicyclo[2.2.1]heptane-(3S)-carbonyl}-amino)-4-oxo-butyric acid], the Ki in assay [1] and in assay [2] was under 10 nM in each case.
For `CC(C)C(=O)Nc1cccc(C(=O)N[C@H](C(=O)N2C3CC[C@@H](C3)[C@H]2C(=O)N[C@H](C=O)CC(=O)O)C(C)(C)C)c1Cl` (stereo in doubt) [II-59, (3S)-({2-[(2S)-(2-Chloro-3-isobutyrylamino-benzoylamino)-3,3-dimethyl-butyryl]-2-(1S,4R)-aza-bicyclo[2.2.1]heptane-(3S)-carbonyl}-amino)-4-oxo-butyric acid], the inhibitory constant (Ki) in assay [1] and in assay [2] was under 10 nM each time.
Consider `CC(=O)Nc1ccc(C(=O)N[C@H](C(=O)N2CCC[C@H]2C(=O)N[C@H](C=O)CC(=O)O)C(C)C)c(F)c1` [II-45, (S,S,S)-(3S)-({1-[(2S)-(2-fluoro-4-acetamido-benzoylamino)-3-methyl-butyryl]-pyrrolidine-(2S)-carbonyl}-amino)-4-oxo-butyric acid], for which the Ki in assay [1] and in assay [2] was under 10 nM each time.
For `COc1cccc(C(=O)N[C@@H](Cc2cscn2)C(=O)N2CCC[C@H]2C(=O)N[C@H](C=O)CC(=O)O)c1C` [II-23, (S,S,S)-(3S)-({1-[(2S)-(3-Methoxy-2-methyl-benzoylamino)-3-thiazol-4-yl-propionyl]-pyrrolidine-(2S)-carbonyl}-amino)-4-oxo-butyric acid], the Ki was 21 to 30 nM in assay [1] and under 10 nM in assay [2].
For the compound `COc1cccc(C(=O)N[C@H](C(=O)N2CCC[C@H]2C(=O)N[C@H](C=O)CC(=O)O)C(C)C)c1Cl` [II-35, (S,S,S)-(3S)-({1-[(2S)-(2-chloro-3-methoxy-benzoylamino)-3-methyl-butyryl]-pyrrolidine-(2S)-carbonyl}-amino)-4-oxo-butyric acid], the Ki in assay [1] and in assay [2] was under 10 nM each time.
Regarding `COc1ccccc1C(=O)N[C@H](C(=O)N1CCC[C@H]1C(=O)N[C@H](C=O)CC(=O)O)C(C)C` [II-4, (S,S,S)-(3S)-({1-[(2S)-(2-methoxy-benzoylamino)-3-methyl-butyryl]-pyrrolidine-(2S)-carbonyl}-amino)-4-oxo-butyric acid], the Ki in assay [1] is 10 to 20 nM; in assay [2] it was under 10 nM.
